Assay results taken from ChEMBL document CHEMBL1201862, “PubChem BioAssay data set” (2004).
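48-hour exposure; five concentrations; linearly interpolated endpoints. GI50 marks 50% less growth.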 The source made the active and inactive calls. Cut-off read from the data, not from the text of the source: active = GI50 up to about 1.1 µM and inactive = higher.

What was measured:
Assay in all cases: inhibition of tumour cell growth, NCI panel, 48 h
A549 = test system: A549
ACHN = test system: ACHN
COLO 205 = test system: COLO 205
HCC 2998 = test system: HCC 2998
HCT-15 = test system: HCT-15
HOP-62 = test system: HOP-62
IGROV-1 = test system: IGROV-1
M14 = test system: M14
Malme-3M = test system: Malme-3M
NCI-H460 = test system: NCI-H460
NCI/ADR-RES = test system: NCI/ADR-RES
OVCAR-3 = test system: OVCAR-3
OVCAR-4 = test system: OVCAR-4
RPMI-8226 = test system: RPMI-8226
SF-295 = test system: SF-295
SNB-19 = test system: SNB-19
SR = test system: SR
T47D = test system: T47D
TK-10 = test system: TK-10
HOP-92 = test system: HOP-92

Structure (SMILES)	GI50 (A549)	GI50 (ACHN)	GI50 (COLO 205)	GI50 (HCC 2998)	GI50 (HCT-15)	GI50 (HOP-62)	GI50 (IGROV-1)	GI50 (M14)	GI50 (Malme-3M)	GI50 (NCI-H460)	GI50 (NCI/ADR-RES)	GI50 (OVCAR-3)	GI50 (OVCAR-4)	GI50 (RPMI-8226)	GI50 (SF-295)	GI50 (SNB-19)	GI50 (SR)	GI50 (T47D)	GI50 (TK-10)	GI50 (HOP-92)
[O-][S+](Nc1ccccc1)c1ccc(Cl)c(Cl)c1 (stereo not drawn)	28.6 µM (inactive)	62.5 µM (inactive)	69.7 µM (inactive)	27.3 µM (inactive)	57.3 µM	26.1 µM (inactive)	21.5 µM (inactive)	73.5 µM (inactive)	56.6 µM (inactive)	31.3 µM (inactive)	37.5 µM (inactive)	63.2 µM (inactive)	47.9 µM (inactive)	51.6 µM (inactive)	24.2 µM (inactive)	62.8 µM (inactive)	26.4 µM (inactive)	10.3 µM (inactive)	> 100 µM (inactive)	
O=C1CC2OCC=C3CN4CCC56c7ccccc7N1C5C2C3CC46O (stereo not drawn)	> 100 µM (inactive)	> 100 µM (inactive)	> 100 µM (inactive)	> 100 µM (inactive)	> 100 µM		> 100 µM (inactive)	> 100 µM (inactive)	> 100 µM (inactive)	> 100 µM (inactive)	> 100 µM (inactive)	> 100 µM (inactive)	> 100 µM (inactive)	> 100 µM (inactive)	> 100 µM (inactive)	> 100 µM (inactive)		> 100 µM (inactive)	> 100 µM (inactive)	> 100 µM (inactive)
CCOc1cc(-c2nc3cc(F)ccc3s2)ccc1O	17.9 µM (inactive)	16 µM (inactive)	19.7 µM (inactive)	26 µM (inactive)	14.9 µM		12.5 µM (inactive)	17.2 µM (inactive)	15.3 µM (inactive)	17.3 µM (inactive)	23 µM (inactive)	18.5 µM (inactive)	26.2 µM (inactive)	10.7 µM (inactive)	20 µM (inactive)	16.5 µM (inactive)		11.6 µM (inactive)	18.7 µM (inactive)	
COc1c2ccoc2nc2c(OC)c(OCC(O)C(C)(C)O)ccc12 (stereo not drawn) [EVOXINE]	> 100 µM (inactive)	> 100 µM (inactive)	> 100 µM (inactive)	> 100 µM (inactive)	> 100 µM		70 µM (inactive)	> 100 µM (inactive)	> 100 µM (inactive)	> 100 µM (inactive)	> 100 µM (inactive)	> 100 µM (inactive)	> 100 µM (inactive)	> 100 µM (inactive)	> 100 µM (inactive)	> 100 µM (inactive)		> 100 µM (inactive)	> 100 µM (inactive)	> 100 µM (inactive)
CCOC(=O)CCC(NC(=O)c1ccc(NCc2ccc3nc(-c4ccccc4)c(Cl)nc3c2)c2ccccc12)C(=O)OCC (stereo not drawn)	> 100 µM (inactive)	> 100 µM (inactive)	> 100 µM (inactive)	> 100 µM (inactive)	> 100 µM	> 100 µM (inactive)		> 100 µM (inactive)	> 100 µM (inactive)	> 100 µM (inactive)	> 100 µM (inactive)	> 100 µM (inactive)	> 100 µM (inactive)		> 100 µM (inactive)	> 100 µM (inactive)		13.9 µM (inactive)	> 100 µM (inactive)	> 100 µM (inactive)
CCOC(=O)c1nc2ccc(C(F)(F)F)cc2nc1NCc1ccc(OC)c(OC)c1	50.2 µM (inactive)	53.1 µM (inactive)	35.8 µM (inactive)		69 µM	58.3 µM (inactive)	71.1 µM (inactive)	67.8 µM (inactive)	97.7 µM (inactive)	35.6 µM (inactive)	37 µM (inactive)	45.8 µM (inactive)	73.5 µM (inactive)	86.1 µM (inactive)	47.6 µM (inactive)	94.2 µM (inactive)	29.6 µM (inactive)	48.1 µM (inactive)	> 100 µM (inactive)	29.7 µM (inactive)
CCOC(=O)c1ccc(Nc2nc3cc(C(F)(F)F)ccc3nc2-c2ccccc2)cc1	> 100 µM (inactive)	17.7 µM (inactive)	42.7 µM (inactive)	22.8 µM (inactive)	> 100 µM	20.9 µM (inactive)	36.1 µM (inactive)		> 100 µM (inactive)	45.7 µM (inactive)	70.5 µM (inactive)	53.6 µM (inactive)		> 100 µM (inactive)	26.7 µM (inactive)	29.2 µM (inactive)	> 100 µM (inactive)	35.7 µM (inactive)	> 10 µM (inactive)	
CCOC(=O)c1nnsc1NC(=O)NN	> 100 µM (inactive)	> 100 µM (inactive)	> 100 µM (inactive)	> 100 µM (inactive)	> 100 µM	> 100 µM (inactive)	> 100 µM (inactive)	> 100 µM (inactive)	> 100 µM (inactive)	> 100 µM (inactive)	> 100 µM (inactive)	> 100 µM (inactive)		> 100 µM (inactive)	> 100 µM (inactive)	> 100 µM (inactive)		> 100 µM (inactive)	> 100 µM (inactive)	
Cc1cc(C)c2c(n1)S(=O)(=O)N(CCCN1CCN(c3cccc(Cl)c3)CC1)C(C(=O)c1ccc(Br)cc1)=C2O	22.1 µM (inactive)	27.3 µM (inactive)	15.4 µM (inactive)		16.7 µM	19.9 µM (inactive)	27.2 µM (inactive)	19.4 µM (inactive)	24.7 µM (inactive)	8.91 µM (inactive)	18.8 µM (inactive)	16.8 µM (inactive)	11.4 µM (inactive)		18.9 µM (inactive)	20.9 µM (inactive)	13.4 µM (inactive)	33.4 µM (inactive)	17.7 µM (inactive)	20.7 µM (inactive)
O=C(CC1C=Cc2ccccc2N1C(=O)c1ccccc1)c1ccccc1 (stereo not drawn)	22.5 µM (inactive)	35.6 µM (inactive)	19.5 µM (inactive)		26.2 µM	30.6 µM (inactive)	19.1 µM (inactive)	20.1 µM (inactive)	21.7 µM (inactive)	22.8 µM (inactive)	25.8 µM (inactive)	13.4 µM (inactive)	34.8 µM (inactive)	10.9 µM (inactive)	27 µM (inactive)	27.7 µM (inactive)	11.9 µM (inactive)	44.2 µM (inactive)	36.3 µM (inactive)	24 µM (inactive)
COc1ccc(N2C(=O)C(=O)C3(CCCCC3)C2=O)c(OC)c1OC	> 100 µM (inactive)	> 100 µM (inactive)	> 100 µM (inactive)		> 100 µM			> 100 µM (inactive)	> 100 µM (inactive)		> 100 µM (inactive)	> 100 µM (inactive)	> 100 µM (inactive)	> 100 µM (inactive)	> 100 µM (inactive)	> 100 µM (inactive)	> 100 µM (inactive)	> 100 µM (inactive)	> 100 µM (inactive)	
COc1cc2cc(C(=O)N3CC(CCl)c4c3cc(N)c3ccccc43)[nH]c2cc1OCCN(C)C (stereo not drawn)	< 0.005 µM (active)	< 0.005 µM (active)	< 0.005 µM (active)	< 0.005 µM (active)	0.00553 µM	< 0.005 µM (active)	< 0.005 µM (active)	< 0.005 µM (active)	0.0053 µM (active)	< 0.005 µM (active)	0.00931 µM (active)	0.00734 µM (active)	0.00628 µM (active)	< 0.005 µM (active)	< 0.005 µM (active)	0.00644 µM (active)		< 0.005 µM (active)	0.00522 µM (active)	< 0.005 µM (active)
Nc1ncnc2c1ccn2CC=C(CO)CO	> 100 µM (inactive)	> 100 µM (inactive)		> 100 µM (inactive)	> 100 µM	> 100 µM (inactive)	> 100 µM (inactive)	> 100 µM (inactive)	> 100 µM (inactive)	> 100 µM (inactive)	> 100 µM (inactive)	> 100 µM (inactive)	> 100 µM (inactive)	> 100 µM (inactive)	> 100 µM (inactive)	> 100 µM (inactive)		> 100 µM (inactive)	> 100 µM (inactive)	> 100 µM (inactive)
NCC(Cc1ccccc1)P(=O)(O)O (stereo not drawn)	> 100 µM (inactive)	> 100 µM (inactive)	> 100 µM (inactive)	> 100 µM (inactive)	> 100 µM	> 100 µM (inactive)	> 100 µM (inactive)	> 100 µM (inactive)	> 100 µM (inactive)	> 100 µM (inactive)	> 100 µM (inactive)	> 100 µM (inactive)	> 100 µM (inactive)		> 100 µM (inactive)	> 100 µM (inactive)		> 100 µM (inactive)	> 100 µM (inactive)	> 100 µM (inactive)
OCC1CCCCCCCCCCC12SCCCS2 (stereo not drawn)	> 100 µM (inactive)	> 100 µM (inactive)	> 100 µM (inactive)		> 100 µM	> 100 µM (inactive)	> 100 µM (inactive)	> 100 µM (inactive)	> 100 µM (inactive)	> 100 µM (inactive)	> 100 µM (inactive)	> 100 µM (inactive)	> 100 µM (inactive)	> 100 µM (inactive)		> 100 µM (inactive)	> 100 µM (inactive)	84.3 µM (inactive)	> 100 µM (inactive)	> 100 µM (inactive)
ClC(Cl)(Cl)C1CCOC1n1nc2ccccc2n1 (stereo not drawn)	> 100 µM (inactive)		> 100 µM (inactive)	> 100 µM (inactive)	> 100 µM	> 100 µM (inactive)	> 100 µM (inactive)	> 100 µM (inactive)	> 100 µM (inactive)	> 100 µM (inactive)	> 100 µM (inactive)	> 100 µM (inactive)	> 100 µM (inactive)		> 100 µM (inactive)		> 100 µM (inactive)	> 100 µM (inactive)	> 100 µM (inactive)	
